How the values were obtained:
[1] = Pharmacokinetic study: blood concentrations of cocaine and BZE in mice after IP cocaine (LC-MS); format: in vivo; details: cocaine 1.5 mg/Kg IP, blood sampled at 0, 0.5, 1 and 5 min post-injection
Protocol: Panel A. Time-dependent blood concentrations of COC and BZE in mice receiving 1.5 mg/Kg cocaine per mouse via IP injection. Panel B. Experimental setup of in vivo detection of circulating COC/BZE using MN-based aptasensor on a B6 black mouse. Panel C. Time-dependent fluorescence intensity of an individual MN that pierces into the mouse skin.
An optical fiber of 500 um in diameter was engineered including 6 emission light collection fibers each at 125 um in diameter, surrounding the single excitation light fiber at the center (FIGS. 13a & 13c). The excitation laser (532-589 nm) is administered directly to the upper dermis via the fiber and transparent MNA to induce skin capillary leakage or extravasation of biomarkers. […] To validate this, cocaine was IP administered at 1.5 mg/Kg per mouse and blood was sampled at 0, 0.5, 1, and 5 min, post-injection. […] When the MNA aptasensor was inserted into the black B6 mice receiving 1.5 mg/kg cocaine intraperitoneally and illuminated with 532 nm laser on the dorsal skin (FIG. 15B), a significant growth of fluorescence intensity as a function of time due to displacement of QDNA by cocaine was clearly seen on individual microneedles (FIG. 15C), confirming the ability of the aptasensor to detect the illicit drug in real time. […]

[2] = humans; cited from earlier work

COC(=O)[C@H]1[C@@H](OC(=O)c2ccccc2)C[C@@H]2CC[C@H]1N2C [cocaine]
blood concentration over time [1]: slightly increased over the 5 min
cocaine concentration in blood [2]: 0.06 to 0.1 mg/L

CN1[C@H]2CC[C@@H]1[C@@H](C(=O)O)[C@@H](OC(=O)c1ccccc1)C2 [BZE, benzoylecgonine]
blood concentration over time [1]: increasing sharply at the first 1 min and then stayed in plateau
